Results: paper PMC10525927, “First Generation of Antioxidant Precursors for Bioisosteric Se-NSAIDs: Design, Synthesis, and In Vitro and In Vivo Anticancer Evaluation” (Antioxidants, 2023)
Like-named read-outs stand apart in the source and are kept apart here.

Legend:
[1] = system: PC-3 prostate cancer cells; parameters: method as in PMID 26750401, PMID 32987314, PMID 33799070, PMID 36257283; details: MTT; parent NSAIDs for reference, some values obtained from the literature; cited from earlier work
[2] = system: HCT-116 colon cancer cells; parameters: method as in PMID 26750401, PMID 32987314, PMID 33799070, PMID 36257283; details: MTT; parent NSAIDs for reference, some values obtained from the literature; cited from earlier work
[3] = system: T-47D breast cancer cells; parameters: method as in PMID 26750401, PMID 32987314, PMID 33799070, PMID 36257283; details: MTT; parent NSAIDs for reference, some values obtained from the literature; cited from earlier work
[4] = system: MDA-MB-231 breast cancer cells; parameters: method as in PMID 26750401, PMID 32987314, PMID 33799070, PMID 36257283; details: MTT; parent NSAIDs for reference, some values obtained from the literature; cited from earlier work
[5] = system: HT-29 colon cancer cells; parameters: method as in PMID 26750401, PMID 32987314, PMID 33799070, PMID 36257283; details: MTT; parent NSAIDs for reference, some values obtained from the literature; cited from earlier work
[6] = system: DU-145 prostate cancer cells; parameters: method as in PMID 26750401, PMID 32987314, PMID 33799070, PMID 36257283; details: MTT; parent NSAIDs for reference, some values obtained from the literature; cited from earlier work
[7] = system: H1299 lung cancer cells; parameters: method as in PMID 26750401, PMID 32987314, PMID 33799070, PMID 36257283; details: MTT; parent NSAIDs for reference, some values obtained from the literature; cited from earlier work
[8] = system: A549 lung cancer cells; parameters: method as in PMID 26750401, PMID 32987314, PMID 33799070, PMID 36257283; details: MTT; parent NSAIDs for reference, some values obtained from the literature; cited from earlier work
[9] = system: HT-29 colon cancer cells; experiment: MTT cell viability assay, HT-29; assay type: cell-based; details: mean ± SD
Procedure: (§1) The cell lines were purchased from the American Type Culture Collection (ATCC). The cancer cell lines DU-145, PC-3, T-47D, MDA-MB-231, H1299, and A549, and the non-tumorigenic cells (184B5 and BEAS-2B), were maintained in RPMI 1640 medium (Gibco, Alcobendas, Madrid, Spain) supplemented with 10% fetal bovine serum (FBS; Gibco) and 1% antibiotics (10.00 units/mL penicillin and 10.00 mg/mL streptomycin; Gibco). Colon cancer cells HT-29 and HCT-116 were cultured in McCoy’s 5A medium (Gibco) supplemented with 10% fetal bovine serum (FBS; Gibco) and 1% antibiotics (10.00 units/mL penicillin and 10.00 mg/mL streptomycin; Gibco). Cells were maintained in tissue culture flasks at 37 °C and 5% CO2. The culture medium was replaced every three days.
(§2) The antiproliferative activity and selectivity in vitro of the Se-NSAID derivatives were determined by the (3-(4,5-dimethylthiazol-2-yl)-2,5-diphenyltetrazolium bromide) (MTT) assay. Compounds were dissolved in DMSO at a concentration of 0.01 M and serial dilutions were prepared. The Se-NSAID derivatives were tested at seven concentrations ranging between 1 and 100 µM in the colon (HT-29 and HCT-116), prostate (DU-145 and PC-3), breast (MDA-MB-231 and T-47D), and lung (H1299 and A549) cancer cell lines. The non-tumorigenic breast (184B5) and lung (BEAS-2B) cell lines were also tested to assess the selectivity of the compounds following the same procedure. A total of 1 × 10^4 cells were seeded per well in 96-well plates and incubated at 5% CO2 and 37 °C for 24 h. Then, cells were treated with either DMSO or increasing concentrations of the corresponding Se-NSAID derivatives for 48 h. A volume of 20 µL of MTT (5 mg/mL) was added to each well 2.5 h before the termination point. At the end of the experiment, the medium was removed, and the resultant formazan crystals formed by mitochondrial reduction of MTT were dissolved in 50 µL of DMSO. Absorbance was measured at 550 nm. IC50, GI50, TGI, and LC50 values were calculated using OriginPro version 8.5.1. software by nonlinear curve fitting. Selectivity indexes (SI) were calculated as the ratio of the IC50 values determined for the nonmalignant and the tumoral cells in the breast (IC50 (184B5)/IC50 (MDA-MB-231) and IC50 (184B5)/IC50 (T-47D)) and lung (IC50 (BEAS-2B)/IC50 (H1299) and IC50 (BEAS-2B)/IC50 (A549)) cell lines. Data were obtained from at least three independent experiments performed in triplicates.

[10] = system: HCT-116 colon cancer cells; experiment: MTT cell viability assay, HCT-116; assay type: cell-based; details: mean ± SD
Procedure: as §1, §2

[11] = system: BEAS-2B non-tumorigenic lung (bronchial epithelium) cells; experiment: MTT cell viability assay, BEAS-2B; assay type: cell-based; details: 48 h, mean ± SD; for IC50: nonmalignant lung cells
Procedure: as §1, §2

[12] = system: A549 lung cancer cells; experiment: MTT cell viability assay, A549; assay type: cell-based; details: mean ± SD
Procedure: as §1, §2

[13] = system: 184B5 non-tumorigenic breast (mammary gland) cells; experiment: MTT cell viability assay, 184B5; assay type: cell-based; details: mean ± SD; for IC50: nonmalignant breast cells
Procedure: as §1, §2

[14] = system: MDA-MB-231 breast cancer cells; experiment: MTT cell viability assay, MDA-MB-231; assay type: cell-based; details: mean ± SD
Procedure: as §1, §2

[15] = system: H1299 lung cancer cells; experiment: MTT cell viability assay, H1299; assay type: cell-based; details: mean ± SD
Procedure: as §1, §2

[16] = system: T-47D breast cancer cells; experiment: MTT cell viability assay, T-47D; assay type: cell-based; details: 48 h, mean ± SD
Procedure: as §1, §2

[17] = system: PC-3 prostate cancer cells; experiment: MTT cell viability assay, PC-3; assay type: cell-based; details: 48 h, mean ± SD, Table S1
Procedure: as §1, §2

[18] = system: DU-145 prostate cancer cells; experiment: MTT cell viability assay, DU-145; assay type: cell-based; details: mean ± SD
Procedure: as §1, §2

[19] = in vitro TGI concentration, 48 h, Table S1
[20] = in vitro TGI concentration, Table S1

In the case of `CC(C(=O)O)c1cccc(C(=O)c2ccccc2)c1` (centres unmarked) [Ket, ketoprofen], the IC50 [1] is listed as > 50 µM, the IC50 [2] is listed as > 50 µM and the IC50 [3] is listed as > 50 µM. The IC50 [4] was > 50 µM, the IC50 [5] was > 50 µM and the IC50 [6] was > 50 µM. For the same molecule, the IC50 [7] was > 50 µM and the IC50 [8] was > 50 µM.

For `CC(=O)Oc1ccccc1C(=O)[Se][Se]C(=O)c1ccccc1OC(C)=O` [Compound 1, 2-Acetoxybenzoic diselenoperoxyanhydride], the IC50 ([9]; Homo sapiens, HT-29, 48 h) was 6.6 ± 2.2 µM, the GI50 ([9]; Homo sapiens, HT-29, 48 h, Table S1) was 3.9 ± 0.4 µM and the “TGI HT-29” value [9, 19] was 6.2 ± 1.9 µM. For the same molecule, the IC50 ([10]; 48 h) was 39.2 ± 7.3 µM, the “LD50 HCT-116” value ([10]; 48 h, Table S1) was 88.0 ± 3.5 µM and the IC50 ([10]; Homo sapiens, HCT-116, 48 h) was ~40 µM. The GI50 ([10]; Homo sapiens, HCT-116, 48 h, Table S1) was 21 ± 4 µM, the “TGI HCT-116” value [10, 19] was 44.5 ± 7.1 µM and the “LD50 BEAS-2B” value ([11]; Table S1) was 17.0 ± 5.7 µM. The IC50 [11] was 18.5 ± 3 µM, the GI50 ([11]; Homo sapiens, BEAS-2B, Table S1) was 3.9 ± 1.3 µM and the IC50 ([11]; Homo sapiens, BEAS-2B) was 14 to 19 µM. The “TGI BEAS-2B” value [11, 20] was 8.4 ± 2.4 µM, the IC50 ([12]; 48 h) was 7 ± 1.3 µM and the “LD50 A549” value ([12]; 48 h, Table S1) was 74.6 ± 5.9 µM. The IC50 ([12]; Homo sapiens, A549, 48 h) was < 10 µM, the GI50 ([12]; Homo sapiens, A549, 48 h, Table S1) was > 100 µM and the “TGI A549” value [12, 19] was 26.2 ± 5.8 µM. For the same molecule, the “LD50 184B5” value ([13]; 48 h, Table S1) was 21.1 ± 3.9 µM, the IC50 ([13]; 48 h) was 14.4 ± 1.5 µM and the GI50 ([13]; Homo sapiens, 184B5, 48 h, Table S1) was 7 ± 1.1 µM. The IC50 ([13]; Homo sapiens, 184B5, 48 h) was 14 to 19 µM, the “TGI 184B5” value [13, 19] was 11.3 ± 1.4 µM and the IC50 ([14]; Homo sapiens, MDA-MB-231, 48 h) was 18.3 ± 6.9 µM. The GI50 ([14]; Homo sapiens, MDA-MB-231, 48 h, Table S1) was 6.6 ± 2.2 µM, the “TGI MDA-MB-231” value [14, 19] was 15.3 ± 4.6 µM and the IC50 ([15]; 48 h) was 8.6 ± 0.8 µM. The IC50 ([15]; Homo sapiens, NCI-H1299, 48 h) was < 10 µM, the GI50 ([15]; Homo sapiens, NCI-H1299, 48 h, Table S1) was 7.7 ± 1.2 µM and the “TGI H1299” value [15, 19] was 9.4 ± 0.8 µM. The “LD50 T-47D” value ([16]; Table S1) was 6.0 ± 1.9 µM, the IC50 ([16]; Homo sapiens, T47D) was 5.9 ± 1.4 µM and the GI50 ([16]; Homo sapiens, T47D, Table S1) was 1.6 ± 0.3 µM. The “TGI T-47D” value [16, 20] was 2.9 ± 0.6 µM, the GI50 [17] was 2.8 ± 0.2 µM and the “LD50 PC-3” value [17] was 3.3 ± 0.4 µM. For the same molecule, the “TGI PC-3” value ([17]; in vitro TGI concentration) was 3.0 ± 0.3 µM, the IC50 ([18]; 48 h) was 5 ± 0.1 µM and the “LD50 DU-145” value ([18]; 48 h, Table S1) was 6.1 ± 0.7 µM. The IC50 ([18]; Homo sapiens, DU-145, 48 h) was < 10 µM, the GI50 ([18]; Homo sapiens, DU-145, 48 h, Table S1) was 4.4 ± 0.5 µM and the “TGI DU-145” value [18, 19] was 5.1 ± 0.2 µM.
